From the supplement of paper PMC6315032

Tests used:
Test in all cases: apparent dissociation constant (pKDapp, Kinobeads competition, Cheng-Prusoff corrected) (-log10 M); higher = tighter binding
[1] = target: AURKA (UniProt O14965); settings: affinity matrix / lysate: Kinobeads, mixed HEK293/K-562/placenta lysate
[2] = target: CDC7 (UniProt O00311); settings: affinity matrix / lysate: Kinobeads, mixed HEK293/K-562/placenta lysate
[3] = target: GSK3A (UniProt P49840); settings: affinity matrix / lysate: Kinobeads, mixed HEK293/K-562/placenta lysate
[4] = target: FGR (UniProt P09769); settings: affinity matrix / lysate: Kinobeads, mixed HEK293/K-562/placenta lysate
[5] = target: PTK2 (UniProt Q05397); settings: affinity matrix / lysate: Kinobeads, mixed HEK293/K-562/placenta lysate
[6] = target: CDC2L5 (UniProt Q14004); settings: affinity matrix / lysate: Kinobeads, mixed HEK293/K-562/placenta lysate
[7] = target: LOC100128443; settings: affinity matrix / lysate: Kinobeads, mixed HEK293/K-562/placenta lysate
[8] = target: EPHA2 (UniProt P29317); settings: affinity matrix / lysate: Kinobeads, mixed HEK293/K-562/placenta lysate
[9] = target: CSNK1E (UniProt P49674); settings: affinity matrix / lysate: Kinobeads, mixed HEK293/K-562/placenta lysate
[10] = target: MAPK1 (UniProt P28482); settings: affinity matrix / lysate: Kinobeads, mixed HEK293/K-562/placenta lysate
[11] = target: ACVR1B (UniProt P36896); settings: affinity matrix / lysate: Kinobeads, mixed HEK293/K-562/placenta lysate
[12] = target: CHEK1 (UniProt O14757); settings: affinity matrix / lysate: Kinobeads, mixed HEK293/K-562/placenta lysate
[13] = target: NEK1 (UniProt Q96PY6); settings: affinity matrix / lysate: Kinobeads, mixed HEK293/K-562/placenta lysate
[14] = target: PKN2 (UniProt Q16513); settings: affinity matrix / lysate: Kinobeads, mixed HEK293/K-562/placenta lysate
[15] = target: CRKRS (UniProt Q9NYV4); settings: affinity matrix / lysate: Kinobeads, mixed HEK293/K-562/placenta lysate
[16] = target: CAMKK2 (UniProt Q96RR4); settings: affinity matrix / lysate: Kinobeads, mixed HEK293/K-562/placenta lysate
[17] = target: PIP4K2C (UniProt Q8TBX8); settings: affinity matrix / lysate: Kinobeads, mixed HEK293/K-562/placenta lysate
[18] = target: MAP3K4 (UniProt Q9Y6R4); settings: affinity matrix / lysate: Kinobeads, mixed HEK293/K-562/placenta lysate
[19] = target: MET (UniProt P08581); settings: affinity matrix / lysate: Kinobeads, mixed HEK293/K-562/placenta lysate
[20] = target: LATS1 (UniProt O95835); settings: affinity matrix / lysate: Kinobeads, mixed HEK293/K-562/placenta lysate
[21] = target: CDC2 (UniProt P06493); settings: affinity matrix / lysate: Kinobeads, mixed HEK293/K-562/placenta lysate
[22] = target: PKMYT1 (UniProt Q99640); settings: affinity matrix / lysate: Kinobeads, mixed HEK293/K-562/placenta lysate
[23] = target: FGFR1 (UniProt P11362); settings: affinity matrix / lysate: Kinobeads, mixed HEK293/K-562/placenta lysate
[24] = target: LIMK1 (UniProt P53667); settings: affinity matrix / lysate: Kinobeads, mixed HEK293/K-562/placenta lysate
[25] = target: CDK10 (UniProt Q15131); settings: affinity matrix / lysate: Kinobeads, mixed HEK293/K-562/placenta lysate
[26] = target: PIK3CB (UniProt P42338); settings: affinity matrix / lysate: Lipid Kinobeads, mixed HeLa/Jurkat/K-562 lysate
[27] = target: RPS6KA4 (UniProt O75676); settings: affinity matrix / lysate: Kinobeads, mixed HEK293/K-562/placenta lysate
[28] = target: CAMK2D (UniProt Q13557); settings: affinity matrix / lysate: Kinobeads, mixed HEK293/K-562/placenta lysate
[29] = target: PRKD1 (UniProt Q15139); settings: affinity matrix / lysate: Kinobeads, mixed HEK293/K-562/placenta lysate
[30] = target: CDK8 (UniProt P49336); settings: affinity matrix / lysate: Kinobeads, mixed HEK293/K-562/placenta lysate
[31] = target: WEE1 (UniProt P30291); settings: affinity matrix / lysate: Kinobeads, mixed HEK293/K-562/placenta lysate
[32] = target: TAOK1 (UniProt Q7L7X3); settings: affinity matrix / lysate: Kinobeads, mixed HEK293/K-562/placenta lysate
[33] = target: HIPK1 (UniProt Q86Z02); settings: affinity matrix / lysate: Kinobeads, mixed HEK293/K-562/placenta lysate

Measured: apparent dissociation constant (-log10 M)

Sequence of CAMK2D (Q13557 whole entry): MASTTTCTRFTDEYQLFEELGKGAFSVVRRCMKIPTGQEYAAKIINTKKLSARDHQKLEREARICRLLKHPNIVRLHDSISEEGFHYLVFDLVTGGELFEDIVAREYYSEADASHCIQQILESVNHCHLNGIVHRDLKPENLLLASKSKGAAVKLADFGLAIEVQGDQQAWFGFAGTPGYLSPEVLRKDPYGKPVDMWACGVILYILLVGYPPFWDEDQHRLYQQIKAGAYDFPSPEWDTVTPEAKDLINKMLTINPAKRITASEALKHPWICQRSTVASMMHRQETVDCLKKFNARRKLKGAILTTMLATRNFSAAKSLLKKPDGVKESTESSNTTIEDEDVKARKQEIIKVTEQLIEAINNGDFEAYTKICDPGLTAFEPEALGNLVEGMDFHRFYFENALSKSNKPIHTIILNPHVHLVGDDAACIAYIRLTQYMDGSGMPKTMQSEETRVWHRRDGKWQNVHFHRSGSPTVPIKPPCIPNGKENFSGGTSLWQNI
Sequence of PIK3CB (P42338 whole entry, looked up): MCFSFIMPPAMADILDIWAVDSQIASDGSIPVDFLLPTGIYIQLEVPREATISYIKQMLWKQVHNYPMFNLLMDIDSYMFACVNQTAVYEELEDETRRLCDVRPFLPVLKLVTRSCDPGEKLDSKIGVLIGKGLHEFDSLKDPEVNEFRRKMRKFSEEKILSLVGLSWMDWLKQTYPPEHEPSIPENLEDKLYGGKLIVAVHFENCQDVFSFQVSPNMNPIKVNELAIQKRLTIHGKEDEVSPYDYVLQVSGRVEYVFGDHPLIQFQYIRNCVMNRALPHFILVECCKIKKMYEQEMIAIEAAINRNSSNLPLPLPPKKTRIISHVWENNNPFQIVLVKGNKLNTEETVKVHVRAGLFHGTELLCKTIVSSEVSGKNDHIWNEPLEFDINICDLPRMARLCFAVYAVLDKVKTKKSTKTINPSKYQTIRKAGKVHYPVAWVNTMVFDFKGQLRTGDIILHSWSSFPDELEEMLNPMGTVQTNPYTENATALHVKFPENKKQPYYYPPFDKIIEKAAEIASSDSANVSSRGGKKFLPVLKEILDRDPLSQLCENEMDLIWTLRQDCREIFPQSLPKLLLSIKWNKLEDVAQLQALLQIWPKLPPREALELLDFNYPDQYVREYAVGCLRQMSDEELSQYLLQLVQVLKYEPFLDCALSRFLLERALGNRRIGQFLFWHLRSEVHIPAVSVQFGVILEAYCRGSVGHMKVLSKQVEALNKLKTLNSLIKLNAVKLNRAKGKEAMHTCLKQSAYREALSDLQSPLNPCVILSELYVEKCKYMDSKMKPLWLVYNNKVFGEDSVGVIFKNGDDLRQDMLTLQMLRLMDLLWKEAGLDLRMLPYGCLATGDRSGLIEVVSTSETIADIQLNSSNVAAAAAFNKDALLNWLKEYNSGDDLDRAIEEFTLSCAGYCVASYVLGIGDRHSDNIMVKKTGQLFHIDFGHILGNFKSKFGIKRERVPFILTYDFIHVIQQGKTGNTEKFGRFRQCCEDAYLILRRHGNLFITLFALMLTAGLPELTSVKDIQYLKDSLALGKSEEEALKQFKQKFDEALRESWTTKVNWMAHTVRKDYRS
Sequence of CDK10 (Q15131 whole entry): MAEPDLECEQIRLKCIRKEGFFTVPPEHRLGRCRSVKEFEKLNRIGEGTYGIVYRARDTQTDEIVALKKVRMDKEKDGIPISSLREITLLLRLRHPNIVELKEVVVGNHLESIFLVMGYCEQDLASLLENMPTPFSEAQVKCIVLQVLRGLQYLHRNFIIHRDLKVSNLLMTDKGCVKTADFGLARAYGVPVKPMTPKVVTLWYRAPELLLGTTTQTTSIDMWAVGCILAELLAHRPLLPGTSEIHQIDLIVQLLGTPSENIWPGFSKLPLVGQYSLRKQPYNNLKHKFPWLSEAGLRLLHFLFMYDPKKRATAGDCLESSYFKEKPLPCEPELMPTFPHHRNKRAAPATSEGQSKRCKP
Sequence of CAMKK2 (Q96RR4 whole entry, looked up): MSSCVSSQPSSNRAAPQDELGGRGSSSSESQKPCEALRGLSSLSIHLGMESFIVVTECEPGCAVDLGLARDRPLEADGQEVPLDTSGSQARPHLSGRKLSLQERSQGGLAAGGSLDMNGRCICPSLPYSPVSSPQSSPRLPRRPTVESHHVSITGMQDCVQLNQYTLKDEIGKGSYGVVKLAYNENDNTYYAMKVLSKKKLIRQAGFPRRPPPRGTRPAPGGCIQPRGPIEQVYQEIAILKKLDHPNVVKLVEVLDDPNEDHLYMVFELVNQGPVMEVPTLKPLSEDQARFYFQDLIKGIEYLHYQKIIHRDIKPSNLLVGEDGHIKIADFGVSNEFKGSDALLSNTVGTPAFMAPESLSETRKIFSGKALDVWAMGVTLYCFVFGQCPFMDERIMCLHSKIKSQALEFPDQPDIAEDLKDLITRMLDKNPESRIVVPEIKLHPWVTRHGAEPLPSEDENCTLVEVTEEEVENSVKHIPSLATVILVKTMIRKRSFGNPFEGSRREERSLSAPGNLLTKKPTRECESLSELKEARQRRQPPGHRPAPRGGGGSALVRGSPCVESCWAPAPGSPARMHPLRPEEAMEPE
Sequence of NEK1 (Q96PY6 whole entry): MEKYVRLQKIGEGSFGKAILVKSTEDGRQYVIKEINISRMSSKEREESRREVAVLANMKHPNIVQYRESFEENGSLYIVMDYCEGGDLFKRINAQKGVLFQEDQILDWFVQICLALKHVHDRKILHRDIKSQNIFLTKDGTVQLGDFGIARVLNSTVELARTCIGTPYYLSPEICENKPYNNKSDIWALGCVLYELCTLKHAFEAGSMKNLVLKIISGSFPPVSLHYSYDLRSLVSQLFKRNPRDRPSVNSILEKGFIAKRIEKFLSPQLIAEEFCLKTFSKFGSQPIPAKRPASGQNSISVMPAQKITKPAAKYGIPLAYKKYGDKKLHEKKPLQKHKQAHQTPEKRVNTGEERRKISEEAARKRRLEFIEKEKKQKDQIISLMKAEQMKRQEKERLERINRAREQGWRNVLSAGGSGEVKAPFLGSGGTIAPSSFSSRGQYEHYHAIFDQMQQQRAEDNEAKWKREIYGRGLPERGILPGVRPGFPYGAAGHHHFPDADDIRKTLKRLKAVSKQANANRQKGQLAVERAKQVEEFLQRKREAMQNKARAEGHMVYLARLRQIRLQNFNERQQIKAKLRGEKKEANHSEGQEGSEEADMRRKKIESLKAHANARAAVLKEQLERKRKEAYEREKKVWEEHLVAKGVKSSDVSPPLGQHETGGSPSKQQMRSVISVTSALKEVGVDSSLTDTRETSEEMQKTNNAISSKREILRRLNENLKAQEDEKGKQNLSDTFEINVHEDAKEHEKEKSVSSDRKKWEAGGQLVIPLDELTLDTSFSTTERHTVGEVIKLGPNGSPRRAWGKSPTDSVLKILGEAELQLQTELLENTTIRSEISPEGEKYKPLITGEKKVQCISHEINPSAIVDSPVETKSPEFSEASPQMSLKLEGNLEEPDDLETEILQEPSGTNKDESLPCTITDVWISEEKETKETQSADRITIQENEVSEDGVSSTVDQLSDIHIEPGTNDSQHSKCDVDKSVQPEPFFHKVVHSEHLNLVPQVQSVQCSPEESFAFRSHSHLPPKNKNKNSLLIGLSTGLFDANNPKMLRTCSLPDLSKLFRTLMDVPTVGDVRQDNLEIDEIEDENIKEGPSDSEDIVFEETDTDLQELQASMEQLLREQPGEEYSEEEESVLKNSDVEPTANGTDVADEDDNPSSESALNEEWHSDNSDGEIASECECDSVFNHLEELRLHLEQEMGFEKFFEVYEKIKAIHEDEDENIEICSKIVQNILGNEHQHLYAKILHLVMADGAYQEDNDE
Sequence of PRKD1 (Q15139 whole entry): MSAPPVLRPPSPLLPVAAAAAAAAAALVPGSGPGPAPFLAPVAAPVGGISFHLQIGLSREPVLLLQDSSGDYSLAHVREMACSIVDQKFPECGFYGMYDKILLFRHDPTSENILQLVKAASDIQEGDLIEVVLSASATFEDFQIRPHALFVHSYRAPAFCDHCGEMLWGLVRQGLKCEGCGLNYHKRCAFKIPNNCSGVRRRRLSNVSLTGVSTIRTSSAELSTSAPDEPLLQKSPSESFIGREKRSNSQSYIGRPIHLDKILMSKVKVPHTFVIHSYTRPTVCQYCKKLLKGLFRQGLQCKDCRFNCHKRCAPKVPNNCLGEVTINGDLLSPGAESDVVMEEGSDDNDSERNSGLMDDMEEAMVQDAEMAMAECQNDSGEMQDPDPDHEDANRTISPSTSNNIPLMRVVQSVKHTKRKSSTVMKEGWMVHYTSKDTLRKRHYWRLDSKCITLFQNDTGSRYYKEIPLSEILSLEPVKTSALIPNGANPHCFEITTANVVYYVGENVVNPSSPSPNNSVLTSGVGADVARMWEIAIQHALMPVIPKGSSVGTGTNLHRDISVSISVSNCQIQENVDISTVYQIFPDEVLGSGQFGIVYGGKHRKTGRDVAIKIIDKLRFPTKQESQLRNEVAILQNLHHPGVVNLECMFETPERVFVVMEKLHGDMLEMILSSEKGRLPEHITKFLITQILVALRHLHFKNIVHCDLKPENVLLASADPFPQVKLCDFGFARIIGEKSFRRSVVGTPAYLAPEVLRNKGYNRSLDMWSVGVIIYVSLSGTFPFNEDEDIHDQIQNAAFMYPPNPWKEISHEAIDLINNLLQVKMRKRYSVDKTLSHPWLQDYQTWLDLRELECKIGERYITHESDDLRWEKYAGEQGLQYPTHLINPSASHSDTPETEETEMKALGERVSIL
Sequence of CDC2 (P06493 whole entry, looked up): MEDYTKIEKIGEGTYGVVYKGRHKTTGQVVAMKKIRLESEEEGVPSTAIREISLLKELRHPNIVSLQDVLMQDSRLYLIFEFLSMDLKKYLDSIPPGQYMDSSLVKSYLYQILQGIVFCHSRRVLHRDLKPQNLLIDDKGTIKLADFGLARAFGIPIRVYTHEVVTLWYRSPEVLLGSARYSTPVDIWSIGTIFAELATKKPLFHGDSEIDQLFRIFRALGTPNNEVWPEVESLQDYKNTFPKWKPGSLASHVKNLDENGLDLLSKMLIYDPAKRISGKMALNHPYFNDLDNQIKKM

COc1ccc(-c2ccc3c(N4CCOC[C@@H]4C)nc(N4CCOC[C@@H]4C)nc3n2)cc1CO [AZD8055]
< 6: all assays above

CCNC(=O)Nc1ccc(-c2nc(N3CCOC[C@@H]3C)c3c(n2)C(C)(C)S(=O)(=O)C3)cc1 [CZ415]
< 6: all assays above
